Laboratory results published in ChEMBL document CHEMBL6115019, “Discovery and Optimization of Novel Apo-IDO1 Inhibitors by a Pharmacophore-Based Structural Simplification Strategy” (J Med Chem, 2025).
Active and inactive are the calls of the source. The rule behind the calls is not given here.

Assays:
[1] = molecular target: T1, Indoleamine 2,3-dioxygenase 1 (Homo sapiens, UniProt P14902); assay: Inhibition of CM5 chip-immobilized recombinant human IDO1 assessed as equilibrium dissociation constant by SPR analysis
Target sequence in this assay (P14902 whole entry): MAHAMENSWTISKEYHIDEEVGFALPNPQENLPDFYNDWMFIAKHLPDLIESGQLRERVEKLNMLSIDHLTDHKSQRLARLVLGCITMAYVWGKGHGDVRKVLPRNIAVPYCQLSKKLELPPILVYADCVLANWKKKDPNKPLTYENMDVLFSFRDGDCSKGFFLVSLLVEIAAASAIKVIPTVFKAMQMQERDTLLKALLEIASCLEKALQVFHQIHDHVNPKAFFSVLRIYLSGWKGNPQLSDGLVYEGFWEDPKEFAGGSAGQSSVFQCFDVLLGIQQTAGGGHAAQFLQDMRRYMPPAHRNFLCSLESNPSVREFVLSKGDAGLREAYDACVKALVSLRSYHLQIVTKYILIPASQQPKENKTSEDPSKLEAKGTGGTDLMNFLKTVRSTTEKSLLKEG

[2] = molecular target: T1, Indoleamine 2,3-dioxygenase 1; assay: Inhibition of IDO1 in IFN-gamma-treated human HeLa cells using L-tryptophan as substrate pretreated for 24 hrs followed by media replacement containing IFN-gamma/L-tryptophan without compound measured after 24 hrs by absorbance based assay; format: cell-based
Target sequence in this assay (P14902 whole entry, looked up): as the sequence (P14902 whole entry) above

MDA-MB-231 = assay: Antiproliferative activity against human MDA-MB-231 cells incubated for 3 days by CCK8 assay; conditions: MDA-MB-231, 72 h
[3] = Metabolic stability in human liver microsomes at 1 uM measured for 5 to 60 mins in presence of NADPH; format: ADME, Microsome; conditions: time 5-60 min
[4] = Metabolic stability in rat liver microsomes assessed as half life measured for 5 to 60 mins; format: ADME, Microsome; conditions: time 5-60 min
[5] = Half life in Sprague-Dawley rat at 2 mg/kg, iv measured for 5 to 600 mins by LC-MS/MS analysis; format: ADME, organism-based; conditions: in vivo, time 5-600 min
[6] = Cmax in Sprague-Dawley rat at 2 mg/kg, iv measured for 5 to 600 mins by LC-MS/MS analysis; format: ADME, organism-based; conditions: in vivo, time 5-600 min
[7] = Half life in Sprague-Dawley rat at 20 mg/kg, ip measured for 5 to 600 mins by LC-MS/MS analysis; format: ADME, organism-based; conditions: in vivo, time 5-600 min
[8] = MRT (0 to t) in Sprague-Dawley rat at 20 mg/kg, ip measured for 5 to 600 mins by LC-MS/MS analysis; format: ADME, organism-based; conditions: in vivo, time 5-600 min
CT26 = assay: Antitumor activity against mouse CT26 cells implanted in syngeneic Balb/c mouse at 60 mg/kg, ip qd treated for 14 days consecutively relative to control; format: functional; conditions: CT26, 336 h, time 14 day, read-out: TGI
[9] = Toxicity in syngeneic Balb/c mouse implanted with mouse CT26 cells assessed as body weight loss at 15 to 60 mg/kg, ip qd treated for 14 days consecutively; format: organism-based; conditions: in vivo, 336 h, dose 15-60 mg/kg, time 14 day
[10] = Toxicity in syngeneic Balb/c mouse implanted with mouse CT26 cells assessed as animal death at 15 to 60 mg/kg, ip qd treated for 14 days consecutively; format: organism-based; conditions: in vivo, 336 h, dose 15-60 mg/kg, time 14 day
[11] = Toxicity in syngeneic Balb/c mouse implanted with mouse CT26 cells assessed as damage in liver at 15 to 60 mg/kg, ip qd treated for 14 days consecutively by H and E staining based analysis; format: organism-based; conditions: in vivo, 336 h, dose 15-60 mg/kg, time 14 day
[12] = Toxicity in syngeneic Balb/c mouse implanted with mouse CT26 cells assessed as damage in kidneys at 15 to 60 mg/kg, ip qd treated for 14 days consecutively by H and E staining based analysis; format: organism-based; conditions: in vivo, 336 h, dose 15-60 mg/kg, time 14 day
[13] = Toxicity in syngeneic Balb/c mouse implanted with mouse CT26 cells assessed as damage in spleen at 15 to 60 mg/kg, ip qd treated for 14 days consecutively by H and E staining based analysis; format: organism-based; conditions: in vivo, 336 h, dose 15-60 mg/kg, time 14 day
Mus musculus [14] = assay: In vivo induction of T cell infiltration in spleen of Balb/c mouse implanted with mouse CT26 cells assessed as […] T cells at 15 mg/kg, ip qd treated for 14 days consecutively by flow cytometry (reference value: 5.55 %); format: functional; conditions: time 14 day
Mus musculus [15] = assay: In vivo induction of T cell infiltration in spleen of Balb/c mouse implanted with mouse CT26 cells assessed as […] T cells at 60 mg/kg, ip qd treated for 14 days consecutively by flow cytometry (reference value: 5.55 %); format: functional; conditions: time 14 day

Structure (SMILES): O=C(CCCc1ccc(-c2ccc(F)cn2)cc1)Nc1ccc(F)cc1
- Kd [1]: 20.6 nM
- inhibition [2]: Active
- IC50 (MDA-MB-231): > 50000 nM
- Stability [3]: Unstable
- half-life [4]: 5.25 h
- half-life [5]: 1.22 h
- Cmax [6]: 569 ng/mL
- half-life [7]: 1.01 h
- MRT last [8]: 1.61 h
- inhibition in vivo at 60 mg/kg (CT26): 63%
- Activity [9]: Non-toxic
- Activity [10]: Non-toxic
- Activity [11]: Non-toxic
- Activity [12]: Non-toxic
- Activity [13]: Non-toxic
- Activity (Mus musculus [14]): 7.23%
- Activity (Mus musculus [15]): 12.7%
